Measured values: US9493411B2 (AbbVie Inc., priority 2013, dated 2016)

Assays:
BRD4 (BDI_K57-E168) = target: T1, BRD4 (BDI_K57-E168) (Homo sapiens, UniProt O60885); test: TR-FRET bromodomain binding assay, BRD4 first bromodomain; conditions: His-tagged BD1, Alexa647-labeled probe 100 nM; Ki calculated from IC50
T1 construct: BD1: amino acids K57-E168; made in house
Experimental: (§1) A time-resolved fluorescence resonance energy transfer (TR-FRET) assay was used to determine the affinities of compounds of the Examples listed in Table 1 for each bromodomain of BRD4. His-tagged first (BD1: amino acids K57-E168) and second (BD2: amino acids E352-E168) bromodomains of BRD4 were expressed and purified. An Alexa647-labeled BET-inhibitor was used as the fluorescent probe in the assay.
(§2) Compound dilution series were prepared in DMSO via a 3-fold serial dilution from 2.5 mM to 42 nM. Compounds were then diluted 6:100 in assay buffer (20 mM Sodium Phosphate, pH 6.0, 50 mM NaCl, 1 mM Ethylenediaminetetraacetic acid disodium salt dihydrate, 0.01% Triton X-100, 1 mM DL-Dithiothreitol) to yield 3× working solutions. Six microliters (μL) of the working solution was then transferred to white, low-volume assay plates (Costar #3673). A 1.5× assay mixture containing His-tagged bromodomain, Europium-conjugated anti-His antibody (Invitrogen PV5596) and the Alexa-647-conjugated probe molecule was also prepared. Twelve μL of this solution were added to the assay plate to reach a final volume of 18 μL. The final concentration of 1× assay buffer contains 2% DMSO, 50 μM-0.85 nM compound, 8 nM His-tagged bromodomain, 1 nM Europium-conjugated anti-His-tag antibody and 100 nM or 30 nM probe (for BDI or BDII, respectively). After a one-hour incubation at room temperature, TR-FRET ratios were determined using an Envision multilabel plate reader (Ex 340, Em […]).
(§3) TR-FRET data were normalized to the means of 24 no-compound controls (“high”) and 8 controls containing 1 μM un-labeled probe (“low”). Percent inhibition was plotted as a function of compound concentration and the data were fit with the 4 parameter logistic equation to obtain IC50s. Inhibition constants (Ki) were calculated from the IC50s, probe Kd and probe concentration. Typical Z′ values were between 0.65 and 0.75. The minimum significant ratio was determined to evaluate assay reproducibility (Eastwood et al., (2006) J Biomol Screen, 11: 253-261). The MSR was determined to be 2.03 for BDI and 1.93 for BDII, and a moving MSR (last six run MSR overtime) for both BDI and BDII was typically <3.

BRD4 (BDII_E352-M457) = target: T2, BRD4 (BDII_E352-M457) (Homo sapiens, UniProt O60885); test: TR-FRET bromodomain binding assay, BRD4 second bromodomain; conditions: His-tagged BD2, Alexa647-labeled probe 30 nM; Ki calculated from IC50
T2 construct: made in house
Experimental: as §1, §2, §3

SMILES	Ki (BRD4 (BDI_K57-E168)) [µM]	Ki (BRD4 (BDII_E352-M457)) [µM]
COc1cc(-c2ccc(-c3cc(C(N)=O)c(C)[nH]3)cc2)cc(OC)c1OC [Example 99, 2-methyl-5-(3′,4′,5′-trimethoxybiphenyl-4-yl)-1H-pyrrole-3-carboxamide]	2.3	2.32
Cc1[nH]c(-c2ccc(-c3ccoc3)cc2)cc1C(N)=O [Example 100, 5-[4-(furan-3-yl)phenyl]-2-methyl-1H-pyrrole-3-carboxamide]	8.36	5.32
Cc1[nH]c(-c2ccc(-c3ccsc3)cc2)cc1C(N)=O [Example 101, 2-methyl-5-[4-(thiophen-3-yl)phenyl]-1H-pyrrole-3-carboxamide]	7.37	5.33
Cc1[nH]c(-c2ccc(-c3cnn(C)c3)cc2)cc1C(N)=O [Example 103, 2-methyl-5-[4-(1-methyl-1H-pyrazol-4-yl)phenyl]-1H-pyrrole-3-carboxamide]	4.66	3.48
Cc1[nH]c(-c2ccc(-c3cccc(C(=O)N(C)C)c3)cc2)cc1C(N)=O [Example 104, 5-[3′-(dimethylcarbamoyl)biphenyl-4-yl]-2-methyl-1H-pyrrole-3-carboxamide]	2.38	2.34
Cc1[nH]c(-c2ccc(-c3cccc(N4CCOCC4)c3)cc2)cc1C(N)=O [Example 105, 2-methyl-5-[3′-(morpholin-4-yl)biphenyl-4-yl]-1H-pyrrole-3-carboxamide]	6.78	5.34
Cc1[nH]c(-c2ccc(-c3cccc(C(=O)NCc4ccco4)c3)cc2)cc1C(N)=O [Example 106, 5-{3′-[(furan-2-ylmethyl)carbamoyl]biphenyl-4-yl}-2-methyl-1H-pyrrole-3-carboxamide]	6.01	4.87
Cc1[nH]c(-c2ccc(-c3ccc(C(=O)N(C)C)cc3)cc2)cc1C(N)=O [Example 108, 5-[4′-(dimethylcarbamoyl)biphenyl-4-yl]-2-methyl-1H-pyrrole-3-carboxamide]	11	4.49
Cc1[nH]c(-c2ccc(-c3cncnc3)cc2)cc1C(N)=O [Example 109, 2-methyl-5-[4-(pyrimidin-5-yl)phenyl]-1H-pyrrole-3-carboxamide]	9.24	4.42
Cc1[nH]c(-c2ccc(-c3ccc(NS(C)(=O)=O)cc3)cc2)cc1C(N)=O [Example 110, 2-methyl-5-{4′-[(methylsulfonyl)amino]biphenyl-4-yl}-1H-pyrrole-3-carboxamide]	4.03	5.9
Cc1n[nH]c(C)c1-c1ccc(-c2cc(C(N)=O)c(C)[nH]2)cc1 [Example 112, 5-[4-(3,5-dimethyl-1H-pyrazol-4-yl)phenyl]-2-methyl-1H-pyrrole-3-carboxamide]	5.43	4.31
Cc1[nH]c(-c2ccc(-c3ccc4ncccc4c3)cc2)cc1C(N)=O [Example 113, 2-methyl-5-[4-(quinolin-6-yl)phenyl]-1H-pyrrole-3-carboxamide]	4.64	4.22
Cc1[nH]c(-c2ccc(-c3ccc(C(=O)N4CCN(C)CC4)cc3)cc2)cc1C(N)=O [Example 114, 2-methyl-5-{4′-[(4-methylpiperazin-1-yl)carbonyl]biphenyl-4-yl}-1H-pyrrole-3-carboxamide]	3.96	3.68
Cc1[nH]c(-c2c(F)cccc2F)cc1C(N)=O [Example 147, 5-(2,6-difluorophenyl)-2-methyl-1H-pyrrole-3-carboxamide]	11.9	12.2
Cc1[nH]c(-c2cccc(-c3ccsc3)c2)cc1C(N)=O [Example 152, 2-methyl-5-[3-(thiophen-3-yl)phenyl]-1H-pyrrole-3-carboxamide]	4.7	7.87
Cc1[nH]c(-c2cccc(-c3cn[nH]c3)c2)cc1C(N)=O [Example 155, 2-methyl-5-[3-(1H-pyrazol-4-yl)phenyl]-1H-pyrrole-3-carboxamide]	2.57	5.46
Cc1[nH]c(-c2cccc(-c3ccc4c(ccn4C)c3)c2)cc1C(N)=O [Example 156, 2-methyl-5-[3-(1-methyl-1H-indol-5-yl)phenyl]-1H-pyrrole-3-carboxamide]	8.49	21.9
Cc1[nH]c(-c2cccc3[nH]cnc23)cc1C(N)=O [Example 163, 5-(1H-benzimidazol-4-yl)-2-methyl-1H-pyrrole-3-carboxamide]	0.912	2.81

The remaining lines, values ahead:

Ki (BRD4 (BDI_K57-E168)) [µM]	Ki (BRD4 (BDII_E352-M457)) [µM]	SMILES
5.68	4.37	Cc1[nH]c(-c2ccc(-c3ccncc3)cc2)cc1C(N)=O [Example 102, 2-methyl-5-[4-(pyridin-4-yl)phenyl]-1H-pyrrole-3-carboxamide]
6.9	5.74	Cc1[nH]c(-c2ccc(-c3cnn(Cc4ccccc4)c3)cc2)cc1C(N)=O [Example 111, 5-[4-(1-benzyl-1H-pyrazol-4-yl)phenyl]-2-methyl-1H-pyrrole-3-carboxamide]
1.85	7.12	Cc1[nH]c(-c2ccccc2Br)cc1C(N)=O [Example 115, 5-(2-bromophenyl)-2-methyl-1H-pyrrole-3-carboxamide]
0.182	0.639	Cc1[nH]c(-c2ccccc2Oc2ccc(Cl)cc2)cc1C(N)=O [Example 116, 5-[2-(4-chlorophenoxy)phenyl]-2-methyl-1H-pyrrole-3-carboxamide]
1.96	7.04	Cc1[nH]c(-c2ccccc2Oc2ccc(Oc3ccccc3)cc2)cc1C(N)=O [Example 122, 2-methyl-5-[2-(4-phenoxyphenoxy)phenyl]-1H-pyrrole-3-carboxamide]
1.97	12.6	Cc1[nH]c(-c2ccccc2Oc2ccc(C#N)cc2)cc1C(N)=O [Example 123, 5-[2-(4-cyanophenoxy)phenyl]-2-methyl-1H-pyrrole-3-carboxamide]
4.6	13.1	Cc1[nH]c(-c2ccccc2Oc2ccc(C3CCCC3)cc2)cc1C(N)=O [Example 124, 5-[2-(4-cyclopentylphenoxy)phenyl]-2-methyl-1H-pyrrole-3-carboxamide]
0.564	1.98	Cc1[nH]c(-c2ccccc2Oc2cccc3c2CCCC3)cc1C(N)=O [Example 136, 2-methyl-5-[2-(5,6,7,8-tetrahydronaphthalen-1-yloxy)phenyl]-1H-pyrrole-3-carboxamide]
1.48	1.82	Cc1[nH]c(-c2ccccc2Oc2ccccc2Cc2ccccc2)cc1C(N)=O [Example 138, 5-[2-(2-benzylphenoxy)phenyl]-2-methyl-1H-pyrrole-3-carboxamide]
0.607	1.3	Cc1[nH]c(-c2ccccc2Oc2cccc3ccccc23)cc1C(N)=O [Example 140, 2-methyl-5-[2-(naphthalen-1-yloxy)phenyl]-1H-pyrrole-3-carboxamide]
0.259	2.11	CCc1ccc(Oc2ccccc2-c2cc(C(N)=O)c(C)[nH]2)cc1 [Example 143, 5-[2-(4-ethylphenoxy)phenyl]-2-methyl-1H-pyrrole-3-carboxamide]
0.446	1.23	Cc1[nH]c(-c2ccccc2Oc2ccc3c(c2)CCC3)cc1C(N)=O [Example 144, 5-[2-(2,3-dihydro-1H-inden-5-yloxy)phenyl]-2-methyl-1H-pyrrole-3-carboxamide]
10.7	9.69	Cc1[nH]c(-c2cccc(-c3ccccc3)c2)cc1C(N)=O [Example 150, 5-(biphenyl-3-yl)-2-methyl-1H-pyrrole-3-carboxamide]
2.22	7.32	CC(=O)c1ccccc1-c1cccc(-c2cc(C(N)=O)c(C)[nH]2)c1 [Example 153, 5-(2′-acetylbiphenyl-3-yl)-2-methyl-1H-pyrrole-3-carboxamide]
2.99	7.12	Cc1[nH]c(-c2cccc(-c3cccnc3)c2)cc1C(N)=O [Example 154, 2-methyl-5-[3-(pyridin-3-yl)phenyl]-1H-pyrrole-3-carboxamide]
0.109	0.658	Cc1[nH]c(-c2cc(N)ccc2Oc2ccccc2)cc1C(N)=O [Example 161, 5-(5-amino-2-phenoxyphenyl)-2-methyl-1H-pyrrole-3-carboxamide]
0.0591	0.754	Cc1[nH]c(-c2cc(NS(C)(=O)=O)ccc2Oc2ccccc2)cc1C(N)=O [Example 162, 2-methyl-5-{5-[(methylsulfonyl)amino]-2-phenoxyphenyl}-1H-pyrrole-3-carboxamide]
